Source: US20230148600A1, “PESTICIDALLY ACTIVE THIOPHENE DERIVATIVES” (SYNGENTA PARTICIPATIONS AG, priority 2017, published 2023)

Legend:
Type in all cases: in vivo
[1] = tested on: Myzus Persicae (Green Peach Aphid); test: Myzus persicae (green peach aphid) feeding/contact activity; conditions: foliar, 144 h, application rate 200 ppm, sunflower leaf discs sprayed, aphid population of mixed ages, assessed 6 days after infestation
Experimental: Myzus Persicae (Green Peach Aphid) Feeding/Contact Activity
Sunflower leaf discs were placed onto agar in a 24-well microtiter plate and sprayed with aqueous test solutions prepared from 10 ′000 ppm DMSO stock solutions. After drying, the leaf discs were infested with an aphid population of mixed ages. The samples were assessed for mortality 6 days after infestation.

[2] = tested on: Plutella Xylostella (Diamond Back Moth); test: Plutella xylostella (diamond back moth) feeding/contact activity; conditions: 120 h, application rate 200 ppm, artificial diet treated by pipetting, L2 larvae, assessed 5 days after infestation
Experimental: Plutella Xylostella (Diamond Back Moth) Feeding/Contact Activity
24-well microtiter plates with artificial diet were treated with aqueous test solutions prepared from 10 ′000 ppm DMSO stock solutions by pipetting. After drying, the plates were infested with L2 larvae (10 to 15 per well). The samples were assessed for mortality 5 days after infestation.

[3] = tested on: Thrips Tabaci (Onion Thrips); test: Thrips tabaci (onion thrips) feeding/contact activity; conditions: foliar, 144 h, application rate 200 ppm, sunflower leaf discs sprayed, thrips population of mixed ages, assessed 6 days after infestation
Experimental: Thrips Tabaci (Onion Thrips) Feeding/Contact Activity
Sunflower leaf discs were placed on agar in 24-well microtiter plates and sprayed with aqueous test solutions prepared from 10 ′000 ppm DMSO stock solutions. After drying the leaf discs were infested with a thrips population of mixed ages. The samples were assessed for mortality 6 days after infestation.

[4] = tested on: Spodoptera Littoralis (Egyptian Cotton Leaf Worm); test: Spodoptera littoralis (Egyptian cotton leaf worm) feeding/contact activity; conditions: foliar, 72 h, application rate 200 ppm, cotton leaf discs sprayed, L1 larvae, assessed 3 days after infestation
Experimental: Spodoptera Littoralis (Egyptian Cotton Leaf Worm) Feeding/Contact Activity
Cotton leaf discs were placed onto agar in 24-well microtiter plates and sprayed with aqueous test solutions prepared from 10 ′000 ppm DMSO stock solutions. After drying the leaf discs were infested with five L1 larvae. The samples were assessed for mortality 3 days after infestation.

[5] = tested on: Tetranychus Urticae (Two-Spotted Spider Mite); test: Tetranychus urticae (two-spotted spider mite) feeding/contact activity; conditions: foliar, 192 h, application rate 200 ppm, bean leaf discs sprayed, mite population of mixed ages, assessed 8 days after infestation, read-out: mortality on mixed population (mobile stages)
Experimental: Tetranychus Urticae (Two-Spotted Spider Mite) Feeding/Contact Activity
Bean leaf discs on agar in 24-well microtiter plates were sprayed with aqueous test solutions prepared from 10 ′000 ppm DMSO stock solutions. After drying the leaf discs were infested with a mite population of mixed ages. The samples were assessed for mortality on mixed population (mobile stages) 8 days after infestation.

[6] = tested on: Diabrotica Balteata (Corn Root Worm); test: Diabrotica balteata (corn root worm) mortality on sprayed maize sprouts; conditions: 96 h, application rate 200 ppm, L2 larvae, assessed 4 days after infestation
Experimental: Diabrotica Balteata (Corn Root Worm)
Maize sprouts placed onto an agar layer in 24-well microtiter plates were treated with aqueous test solutions prepared from 10 ′000 ppm DMSO stock solutions by spraying. After drying, the plates were infested with L2 larvae (6 to 10 per well). The samples were assessed for mortality 4 days after infestation.

[7] = tested on: Euschistus Heros (Neotropical BROWN Stink Bug); test: Euschistus heros (neotropical brown stink bug) feeding/contact activity; conditions: 120 h, application rate 200 ppm, soybean leaves sprayed, N2 nymphs, assessed 5 days after infestation
Experimental: Euschistus Heros (Neotropical BROWN Stink Bug) Feeding/Contact Activity
Soybean leaves on agar in 24-well microtiter plates were sprayed with aqueous test solutions prepared from 10 ′000 ppm DMSO stock solutions. After drying the leaves were infested with N2 nymphs. The samples were assessed for mortality 5 days after infestation.

Measured: mortality at 200 ppm

N#CC1(NC(=O)c2cc(-c3cnn(-c4c(Cl)cc(C(F)(C(F)(F)F)C(F)(F)F)cc4Cl)c3)sc2Cl)CC1 [Example 4, 2-chloro-N-(1-cyanocyclopropyl)-5-[1-[2,6-dichloro-4-[1,2,2,2-tetrafluoro-1-(trifluoromethyl)ethyl]phenyl]pyrazol-4-yl]thiophene-3-carboxamide]
≥ 80%: all assays above
